Source: US20090247520A1, “INHIBITORS OF ANTIGEN RECEPTOR-INDUCED NF-kappa B ACTIVATION” (The Burnham Institute for Medical Research, priority 2008, published 2009)
“Also recorded” adds a separate entry of the source.

Tests used:
TRAF1 induction = assay: TRAF1 expression in anti-IgM-stimulated CLL B-cells (immunoblot); type: cell-based, human; conditions: 24 hr after stimulation
Protocol: (A) Isolated mouse primary splenocytes were cultured with anti-CD3/anti-CD28 (0.3 μg/mL each) or anti-IgM (3 μg/mL) for 48 h, then 1 μCi 3H-Thymidine was added for 12 h and incorporation into DNA was measured, expressing data as fold increase above unstimulated cells (mean±SD; n=3). (B-D) Primary splenocytes were pretreated for 2 h with IKK inhibitor, BMS-335541 (B), PKC inhibitor, Bisindolylmaleimide I (C) or CID-2858522 (D), then stimulated with anti-CD3/anti-CD28 (0.3 μg/mL) or anti-IgM (3 μg/mL) for 48 h. 1 μCi 3H-Thymidine was added for 12 h and incorporation into DNA was measured, expressing data as percent inhibition relative to control cells treated with DMSO (mean±SD; n=3). […] Levels of TRAF1 and β-actin were assessed by immunoblotting, quantified by densitometry and TRAF1 results reported relative to control cells, after normalization for β-actin (mean±SD). […] Then nuclear extracts were prepared and p65-DNA-binding activity was measured (mean±SD; n=3).
Chronic Lymphocytic Leukemia (CLL) cell culture. Peripheral blood mononuclear cells from CLL patients were obtained under IRB approval from whole blood by Ficoll density gradient centrifugation and cultured with RPMI 1640 Medium supplemented with 10% FBS and antibiotics.

[1] = tested on: retinoic acid-induced NF-κB activity; assay: NF-κB reporter in HEK293-NF-κB-luc cells treated with all-trans-retinoic acid; type: cell-based; conditions: 16 μM retinoic acid; CID-2858522 4 μM, IKK inhibitor 10 μM
Protocol: (§1) FIGS. 3 (A-F) HEK293-NF-κB-luc cells were pretreated with CID-2858522 (4 μM), IKK inhibitor, BMS-335541 (10 μM), or PKC inhibitor, Bisindolylmaleimide I (1 μM) for 2 hrs and then transfected with plasmids encoding CD4/TLR4 (A), CD40 (B), NOD1 (C), NOD2 (D), cIAP2-MALT1 (E), or XIAP and TAB (F), or pcDNA as control (compounds were not removed). After 48 hrs, luciferase activity was measured expressing data as fold increase relative to unstimulated cells (mean±SD; n=3). (G-H) HEK293-NF-κB-luc cells were pretreated with CID-2858522 (4 μM), or IKK inhibitor, BMS-335541 (10 μM) for 2 hrs and then cultured with 2 μM doxorubicin (G) or 16 μM retinoic acid (H). After 48 hrs, luciferase activity was measured as above.
(§2) Counter Screening and Secondary Assays. To counter-screen for inhibitors of the TNF pathway, HEK293-NFκB-Luc cells were seeded at 10^5 cells per well in 90 μL medium in white 96-well plates (Greiner Bio-One) and cultured overnight, before adding compounds (5 μL in medium) to cells. […] Luciferase activity was measured using Britelite kit (Perkin Elmer). […] Cells were cultured in medium containing CID-2858522 or other compounds and luciferase activity was measured 48 h later. […] Reactions were then initiated by addition of 50 μL 160 nM ATP (Sigma) in PBS and luciferase activity was measured 2 h later using a luminometer (LJL Biosystems, Sunnyvale, Calif.).

[2] = tested on: CD4-TLR4 induced NF-κB reporter gene activity; assay: NF-κB reporter in HEK293-NF-κB-luc cells transfected with CD4-TLR4; type: cell-based; conditions: CID-2858522 4 μM, IKK inhibitor 10 μM, PKC inhibitor 1 μM
Protocol: as §1, §2

[3] = tested on: XIAP plus TAB induced NF-κB activation; assay: NF-κB reporter in 293-NF-κB-luciferase cells transfected with XIAP plus TAB; type: cell-based; conditions: CID-2858522 4 μM, IKK inhibitor 10 μM
Protocol: as §1
Counter Screening and Secondary Assays. To counter-screen for inhibitors of the TNF pathway, HEK293-NFκB-Luc cells were seeded at 10^5 cells per well in 90 μL medium in white 96-well plates (Greiner Bio-One) and cultured overnight, before adding compounds (5 μL in medium) to cells. After 2 h incubation, 5 μL TNF (200 ng/mL) (R&D Systems) was added (final concentration 10 ng/mL) and cells were incubated for 16 h. Luciferase activity was measured using Britelite kit (Perkin Elmer). To counter-screen for inhibitors of NF-κB induced by TLR4, CD40, NOD1, NOD2, cIAP2/MALT, or XIAP/TAB, the 293-NF-κB-luc cells cultured in 96 well plates as above were pretreated with compounds for 2 h and then transfected using Lipofectamine 2000 with various plasmids including pcDNA3 (“empty vector” control) or plasmids encoding CD4-TLR4, CD40, NOD1, NOD2, cIAP2/MALT, XIAP/TAB, using 0.2 μL of transfection reagent containing 100 ng DNA per well. Cells were cultured in medium containing CID-2858522 or other compounds and luciferase activity was measured 48 h later. […] Reactions were then initiated by addition of 50 μL 160 nM ATP (Sigma) in PBS and luciferase activity was measured 2 h later using a luminometer (LJL Biosystems, Sunnyvale, Calif.).

[4] = tested on: TNF-induced NF-κB reporter gene activity; assay: TNF-induced NF-κB reporter counter-screen in HEK293-NFκB-Luc cells; type: cell-based; conditions: TNF 10 ng/mL; CID-2858522 at concentrations as high as 4 μM
Protocol: (A) Structures of two hit compounds, CID-2858522 (left) and CID-2998237 (right) are shown; (B, C) 293-NF-κB-luc cells were pretreated for 2 hrs with various concentration of either CID-2858522 (B) or CID-29982387 (C) and then stimulated with TNF (10 ng/mL) or PMA/lonomycin (10 ng/mL; 5 ng/mL) for 16 h. Luciferase activity was measured and data were expressed as a percentage relative to control treatment with DMSO only (mean±SD; n=3). (D) 293-NF-κB-luc cells were pretreated for 2 h with various concentrations of CID-2858522 or CID-2998237, then stimulated with PMA/lonomycin for 16 h. IL-8 release into the medium was measured, expressing data as a percentage relative to control cultures treated with DMSO (mean±SD; n=3). (E) 293-NF-κB-luc cells were pretreated with CID-2858522 and then stimulated with PDBu for 16 h, IL-8 production and NF-κB luciferase activity were measured as above. (F) 293-NF-κB-luc cells were pretreated for 2 h with various concentrations of CID-2858522 or a PKC inhibitor (Bisindolylmaleimide I) at 1 μM followed by PMA/Ionomycin (10 ng/mL) stimulation for 2 h, then p65-DNA-binding activity was measured in nuclear extracts (10 μg protein), expressing data as fold-increase relative to unstimulated cells (mean±SD; n=3).
Counter Screening and Secondary Assays. […] Luciferase activity was measured using Britelite kit (Perkin Elmer). […]

[5] = tested on: caspase-8 p43/41 processing intermediate; assay: Caspase-8 p43/41 processing in HEK293 cells after PMA/Ion; type: cell-based; conditions: data not shown
Source text: Caspase-8 plays an essential role in antigen receptor-mediated NF-κB activation. It was recently reported that MALT1 interacts with Caspase-8 and activates this protease upon antigen receptor activation. […] We then examined if CID-2858522 affected the pathway at this point. PMA induced significant MALT1-caspase-8 interaction in HEK293 cells over-expressing Flag-MALT1 and Caspase-8. […] The caspase-8 p43/41 processing intermediate was generated in HEK293 cells after PMA/Ion treatment. […] We then assessed the effects of CID-2858522 on PMA-induced proteolytic processing of c-FLIP, a Caspase-8-mediated event recently shown to be required for antigen receptor mediated NF-κB activation.

SMILES | inhibition of anti-IgM-stimulated TRAF1 expression (TRAF1 induction) | suppression of retinoic acid-induced NF-κB activity [1] | suppression of TLR4 (CD4-TLR4) induced NF-κB reporter [2] | suppression of XIAP plus TAB-driven NF-κB activation [3] | suppression of XIAP plus TAB-driven NF-κB activation ([3]; listed as CID-288522) | inhibition of TNF-induced NF-κB reporter gene activity [4] | inhibition of caspase-8 p43/41 processing intermediate [5]
Cc1cc2nc(NCCCO)n(CC(=O)c3cc(C(C)(C)C)c(O)c(C(C)(C)C)c3)c2cc1C [Compound 1, 2-(2-(3-Hydroxypropylamino)-5,6-dimethyl-1H-benzo[d]imidazol-1-yl)-1-(3,5-di-tert-butyl-4-hydroxyphenyl)ethanone] | inhibited | did not inhibit | did not inhibit; also recorded: not by CID-2858522 | did not inhibit | did not | did not inhibit | –
Cc1ccc2nc(NCCN)c3ncc(C)n3c2c1 [BMS-345541, reference compound] | – | significantly suppressed | suppressed | effectively suppressed | – | – | –
CN(C)CCCn1cc(C2=C(c3c[nH]c4ccccc34)C(=O)NC2=O)c2ccccc21 [Bisindolylmaleimide I, reference compound] | also inhibited | – | – | – | – | – | inhibited
